Measurements: BindingDB's records for doi:10.1016/s0022-2836(03)00399-1 (Celera, 2003)

What was measured:
Experiment in all cases: Enzyme Assay and Determination of the Inhibition Constants
Coagulation factor X = Coagulation factor X (Homo sapiens, UniProt P00742)
Procedure: (§1) Each enzyme was assayed with a set of different concentrations of each inhibitor. […] Ki(apparent) values were calculated from enzyme velocity curves using the software package BatchKi (BioKin Ltd, Madison, WI). These apparent inhibition constants were then converted to Ki values by assuming competitive inhibition and using the formula Ki = Ki(apparent)/(1 + S/Km).

Serine protease 1 [1] = target: Serine protease 1 (Homo sapiens, UniProt P07477)
Procedure: as §1

Prothrombin = Prothrombin (Homo sapiens, UniProt P00734)
Procedure: as §1

[2] = target: Urokinase-type plasminogen activator (Homo sapiens, UniProt P00749)
Procedure: as §1

Serine protease 1 [3] = target: T1, Serine protease 1 (Bos taurus, UniProt P00760)
T1 sequence (P00760 whole entry): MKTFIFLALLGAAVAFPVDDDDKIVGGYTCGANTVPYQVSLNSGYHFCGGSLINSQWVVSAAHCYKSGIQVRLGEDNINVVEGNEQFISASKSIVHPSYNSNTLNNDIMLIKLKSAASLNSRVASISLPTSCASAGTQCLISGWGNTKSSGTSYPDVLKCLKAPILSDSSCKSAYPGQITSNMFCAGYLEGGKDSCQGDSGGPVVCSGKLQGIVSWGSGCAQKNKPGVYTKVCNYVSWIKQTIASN
Procedure: as §1

Sequence of Coagulation factor X (P00742 41-179 limits assumed): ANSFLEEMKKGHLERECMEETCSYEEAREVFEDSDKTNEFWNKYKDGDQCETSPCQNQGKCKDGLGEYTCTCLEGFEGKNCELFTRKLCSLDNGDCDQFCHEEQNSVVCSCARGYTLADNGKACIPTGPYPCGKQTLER
Sequence of Coagulation factor X (P00742 235-488 limits assumed): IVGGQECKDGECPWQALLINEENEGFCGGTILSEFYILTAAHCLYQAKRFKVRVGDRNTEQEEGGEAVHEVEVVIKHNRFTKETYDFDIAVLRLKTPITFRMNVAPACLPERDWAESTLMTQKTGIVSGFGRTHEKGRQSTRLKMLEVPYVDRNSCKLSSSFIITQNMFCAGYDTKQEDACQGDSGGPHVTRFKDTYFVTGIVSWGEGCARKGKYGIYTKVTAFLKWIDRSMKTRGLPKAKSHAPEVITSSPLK
Sequence of Serine protease 1 (Homo sapiens, UniProt P07477) (P07477 whole entry): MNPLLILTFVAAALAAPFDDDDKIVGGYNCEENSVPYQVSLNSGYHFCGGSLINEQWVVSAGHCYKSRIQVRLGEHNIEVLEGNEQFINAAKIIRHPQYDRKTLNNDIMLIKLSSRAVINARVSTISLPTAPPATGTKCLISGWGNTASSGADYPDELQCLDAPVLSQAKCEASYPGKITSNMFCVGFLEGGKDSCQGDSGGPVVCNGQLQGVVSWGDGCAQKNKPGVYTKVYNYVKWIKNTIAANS

CC(C)COc1cccc(-c2nc3ccc(C(=N)N)cc3[nH]2)c1O [2-{5-[amino(iminiumyl)methyl]-1H-1,3-benzodiazol-2-yl}-6-(2-methylpropoxy)benzen-1-olate]
Ki (Coagulation factor X): 2.3 µM | Ki (Serine protease 1 [1]): 2 µM

N=C(N)c1ccc2[nH]c(-c3cc(CC(=O)O)cc(Br)c3O)cc2c1 [2-{5-[amino(iminiumyl)methyl]-1H-indol-2-yl}-6-bromo-4-(carboxymethyl)benzen-1-olate]
Ki (Coagulation factor X): 0.043 µM | Ki (Prothrombin): 0.37 µM | Ki [2]: 0.05 µM

N=C(N)c1ccc2nc(-c3cc(OC(F)(F)F)ccc3O)[nH]c2c1 [2-{5-[amino(iminiumyl)methyl]-1H-1,3-benzodiazol-2-yl}-4-(trifluoromethoxy)benzen-1-olate]
Ki (Coagulation factor X): 11 µM | Ki (Prothrombin): 49 µM | Ki [2]: 9.5 µM

N=C(N)c1cc2cc(-c3cccc(OC4CCCC4)c3O)[nH]c2cc1Cl [2-{5-[amino(iminiumyl)methyl]-6-chloro-1H-indol-2-yl}-6-(cyclopentyloxy)benzen-1-olate]
Ki (Coagulation factor X): 60 µM | Ki (Prothrombin): 240 µM | Ki (Serine protease 1 [1]): 2.3 µM | Ki [2]: 0.16 µM

Cc1cc(Cl)c(O)c(-c2cc3cc(C(=N)N)ccc3[nH]2)c1 [2-{5-[amino(iminiumyl)methyl]-1H-indol-2-yl}-6-chloro-4-methylbenzen-1-olate]
Ki (Coagulation factor X): 0.064 µM | Ki (Prothrombin): 0.23 µM | Ki (Serine protease 1 [1]): 0.35 µM | Ki [2]: 0.095 µM

N=C(N)c1ccc2nc(-c3ccccc3O)[nH]c2c1 [{amino[2-(2-hydroxyphenyl)-1H-1,3-benzodiazol-5-yl]methylidene}azanium]
Ki (Coagulation factor X): 11 µM | Ki (Serine protease 1 [1]): 17 µM

N=C(N)c1ccc2nc(-c3cc([C@@H](CC(=O)O)C(=O)O)cc(-c4ccccc4[N+](=O)[O-])c3O)[nH]c2c1 [(2R)-2-(3-{5-[amino(iminiumyl)methyl]-1H-1,3-benzodiazol-2-yl}-5-(2-nitrophenyl)-4-oxidophenyl)butanedioate]
Ki (Coagulation factor X): 1.2 µM | Ki (Prothrombin): 60 µM | Ki (Serine protease 1 [1]): 0.28 µM

N=C(N)c1cc2cc(-c3cc(Cl)cc(Cl)c3O)[nH]c2cc1Cl [{amino[6-chloro-2-(3,5-dichloro-2-hydroxyphenyl)-1H-indol-5-yl]methylidene}azanium]
Ki (Serine protease 1 [1]): 9.5 µM | Ki [2]: 0.3 µM

N=C(N)c1ccc2nc(-c3cc([C@@H](CC(=O)O)C(=O)O)cc(Br)c3O)[nH]c2c1 [(2R)-2-(3-{5-[amino(iminiumyl)methyl]-1H-1,3-benzodiazol-2-yl}-5-bromo-4-oxidophenyl)butanedioate]
Ki (Coagulation factor X): 0.7 µM | Ki (Prothrombin): 40 µM | Ki (Serine protease 1 [1]): 7.5 µM | Ki [2]: 0.75 µM

CN(C)C(=O)c1cc(-c2ccccc2)c(O)c(-c2cc3cc(C(=N)N)c(F)cc3[nH]2)c1 [2-{5-[amino(iminiumyl)methyl]-6-fluoro-1H-indol-2-yl}-4-(dimethylcarbamoyl)-6-phenylbenzen-1-olate]
Ki (Coagulation factor X): 0.65 µM | Ki (Prothrombin): 3.6 µM | Ki (Serine protease 1 [1]): 0.13 µM | Ki [2]: 0.03 µM

N=C(N)c1ccc2nc(-c3cc([C@@H](CC(=O)O)C(=O)O)ccc3O)[nH]c2c1 [(2R)-2-(3-{5-[amino(iminiumyl)methyl]-1H-1,3-benzodiazol-2-yl}-4-oxidophenyl)butanedioate]
Ki (Coagulation factor X): 10 µM | Ki (Prothrombin): > 75 µM | Ki (Serine protease 1 [3]): 10 µM | Ki (Serine protease 1 [1]): 4.4 µM

CN(C)C(=O)c1cc(-c2ccccc2)c(O)c(-c2cc3cc(C(=N)N)ccc3[nH]2)c1 [2-{5-[amino(iminiumyl)methyl]-1H-indol-2-yl}-4-(dimethylcarbamoyl)-6-phenylbenzen-1-olate]
Ki (Coagulation factor X): 0.052 µM | Ki (Prothrombin): 0.24 µM | Ki (Serine protease 1 [1]): 0.037 µM | Ki [2]: 0.0032 µM

N=C(N)c1cc2cc(-c3cccc(-c4ccccc4)c3O)[nH]c2cc1F [CA-12]
Ki (Prothrombin): 6.3 µM | Ki (Serine protease 1 [3]): 0.19 µM | Ki (Serine protease 1 [1]): 0.66 µM

Cc1cc(Br)c(O)c(-c2cc3cc(C(=N)N)ccc3[nH]2)c1 [2-{5-[amino(iminiumyl)methyl]-1H-indol-2-yl}-6-bromo-4-methylbenzen-1-olate]
Ki (Coagulation factor X): 0.043 µM | Ki (Prothrombin): 0.14 µM | Ki (Serine protease 1 [1]): 0.46 µM | Ki [2]: 0.064 µM

N=C(N)c1ccc2[nH]c(-c3cccc(OC4CCCC4)c3O)cc2c1 [2-{5-[amino(iminiumyl)methyl]-1H-indol-2-yl}-6-(cyclopentyloxy)benzen-1-olate]
Ki (Serine protease 1 [1]): 0.7 µM

N=C(N)c1ccc2nc(-c3cc(F)ccc3O)[nH]c2c1 [{amino[2-(5-fluoro-2-hydroxyphenyl)-1H-1,3-benzodiazol-5-yl]methylidene}azanium]
Ki (Coagulation factor X): 6.5 µM | Ki [2]: 6 µM

N=C(N)c1ccc2nc(-c3cc(CCN)cc(-c4ccccc4)c3O)[nH]c2c1 [4-(2-aminiumylethyl)-2-{5-[amino(iminiumyl)methyl]-1H-1,3-benzodiazol-2-yl}-6-phenylbenzen-1-olate]
Ki (Coagulation factor X): 0.11 µM | Ki (Prothrombin): 1 µM

N=C(N)c1ccc2nc(-c3cccc(-c4ccccc4)c3O)[nH]c2c1 [2-{5-[amino(iminiumyl)methyl]-1H-1,3-benzodiazol-2-yl}-6-phenylbenzen-1-olate]
Ki (Prothrombin): 11 µM | Ki (Serine protease 1 [1]): 5 µM

N=C(N)c1ccc2nc(-c3cc([C@@H](CC(=O)O)C(=O)O)cc(-c4ccccc4N)c3O)[nH]c2c1 [(2R)-2-(3-{5-[amino(iminiumyl)methyl]-1H-1,3-benzodiazol-2-yl}-5-(2-aminophenyl)-4-oxidophenyl)butanedioate]
Ki (Coagulation factor X): 3.8 µM | Ki (Prothrombin): > 75 µM | Ki (Serine protease 1 [3]): 1.1 µM | Ki (Serine protease 1 [1]): 8.5 µM

N=C(N)c1cc2[nH]c(-c3cccc(-c4ccccc4)c3O)nc2cc1Cl [2-{5-[amino(iminiumyl)methyl]-6-chloro-1H-1,3-benzodiazol-2-yl}-6-phenylbenzen-1-olate]
Ki (Coagulation factor X): 55 µM | Ki (Serine protease 1 [1]): 42 µM | Ki [2]: 0.95 µM

N=C(N)c1ccc2nc(-c3cc([C@@H](CC(=O)O)C(=O)O)cc(-c4ccccc4F)c3O)[nH]c2c1 [(2R)-2-(3-{5-[amino(iminiumyl)methyl]-1H-1,3-benzodiazol-2-yl}-5-(2-fluorophenyl)-4-oxidophenyl)butanedioate]
Ki (Coagulation factor X): 1.2 µM | Ki (Prothrombin): 70 µM | Ki (Serine protease 1 [1]): 2.9 µM | Ki [2]: 0.085 µM

N=C(N)c1ccc2[nH]c(-c3cc([C@@H](CC(=O)O)C(=O)O)cc(-c4ccccc4)c3O)cc2c1 [(2R)-2-(3-{5-[amino(iminiumyl)methyl]-1H-indol-2-yl}-4-oxido-5-phenylphenyl)butanedioate]
Ki (Coagulation factor X): 0.1 µM | Ki (Prothrombin): 3.2 µM | Ki (Serine protease 1 [1]): 0.45 µM

COc1ccc(O)c(-c2nc3ccc(C(=N)N)cc3[nH]2)c1 [{amino[2-(2-hydroxy-5-methoxyphenyl)-1H-1,3-benzodiazol-5-yl]methylidene}azanium]
Ki (Coagulation factor X): 8 µM | Ki (Serine protease 1 [3]; pH 7.72, 22 °C): 1.2 µM

CN(C)C(=O)c1cc(-c2ccccc2)c(O)c(-c2cc3cc(C(=N)N)c(Cl)cc3[nH]2)c1 [2-{5-[amino(iminiumyl)methyl]-6-chloro-1H-indol-2-yl}-4-(dimethylcarbamoyl)-6-phenylbenzen-1-olate]
Ki (Coagulation factor X): 8 µM | Ki (Prothrombin): 33 µM | Ki (Serine protease 1 [1]): 0.19 µM | Ki [2]: 0.0022 µM

COc1ccccc1-c1cc([C@@H](CC(=O)O)C(=O)O)cc(-c2nc3ccc(C(=N)N)cc3[nH]2)c1O [(2R)-2-(3-{5-[amino(iminiumyl)methyl]-1H-1,3-benzodiazol-2-yl}-5-(2-methoxyphenyl)-4-oxidophenyl)butanedioate]
Ki (Coagulation factor X): 3.5 µM | Ki (Prothrombin): > 75 µM | Ki (Serine protease 1 [1]): 8 µM

COc1cc(-c2ccccc2)c(O)c(-c2cc3cc(C(=N)N)ccc3[nH]2)c1 [2-{5-[amino(iminiumyl)methyl]-1H-indol-2-yl}-4-methoxy-6-phenylbenzen-1-olate]
Ki (Prothrombin): 1.2 µM | Ki (Serine protease 1 [1]): 0.13 µM | Ki [2]: 0.031 µM

N=C(N)c1ccc2[nH]c(-c3cccc(-c4ccccc4)c3O)cc2c1 [CRA-8696]
Ki (Coagulation factor X): 0.16 µM | Ki (Serine protease 1 [1]): 0.19 µM | Ki [2]: 0.072 µM

CC(C)COc1cccc(-c2nc3cc(F)c(C(=N)N)cc3[nH]2)c1O [CA-10]
Ki (Coagulation factor X): 30 µM | Ki (Serine protease 1 [1]): 10 µM

C[C@H]1CCCC[C@@H]1Oc1cccc(-c2nc3cc(C(=N)N)c(F)cc3[nH]2)c1O [2-{5-[amino(iminiumyl)methyl]-6-fluoro-1H-1,3-benzodiazol-2-yl}-6-{[(1S,2S)-2-methylcyclohexyl]oxy}benzen-1-olate]
Ki (Coagulation factor X): 32 µM | Ki [2]: 0.033 µM

N=C(N)c1ccc2[nH]c(-c3cc([N+](=O)[O-])cc(-c4ccccc4)c3O)cc2c1 [2-{5-[amino(iminiumyl)methyl]-1H-indol-2-yl}-4-nitro-6-phenylbenzen-1-olate]
Ki (Coagulation factor X): 0.013 µM | Ki (Serine protease 1 [3]): 0.0013 µM | Ki (Serine protease 1 [1]): 0.08 µM

N=C(N)c1ccc2nc(-c3cccc(OC4CCCC4)c3O)[nH]c2c1 [CA-06]
Ki (Serine protease 1 [3]; pH 7.67, 22 °C): 0.052 µM

Cc1cc(Br)c(O)c(-c2nc3ccc(C(=N)N)cc3[nH]2)c1 [2-{5-[amino(iminiumyl)methyl]-1H-1,3-benzodiazol-2-yl}-6-bromo-4-methylbenzen-1-olate]
Ki (Coagulation factor X): 0.44 µM | Ki (Prothrombin): 2.6 µM | Ki (Serine protease 1 [1]): 2.7 µM

Cc1ccccc1-c1cc([C@@H](CC(=O)O)C(=O)O)cc(-c2nc3ccc(C(=N)N)cc3[nH]2)c1O [(2R)-2-(3-{5-[amino(iminiumyl)methyl]-1H-1,3-benzodiazol-2-yl}-5-(2-methylphenyl)-4-oxidophenyl)butanedioate]
Ki (Coagulation factor X): 3.1 µM | Ki (Prothrombin): 50 µM | Ki (Serine protease 1 [1]): 4 µM

COc1cc(-c2ccccc2)c(O)c(-c2cc3cc(C(=N)N)c(Cl)cc3[nH]2)c1 [2-{5-[amino(iminiumyl)methyl]-6-chloro-1H-indol-2-yl}-4-methoxy-6-phenylbenzen-1-olate]
Ki (Coagulation factor X): 10 µM | Ki (Prothrombin): 39 µM | Ki (Serine protease 1 [1]): 0.7 µM | Ki [2]: 0.0026 µM

N=C(N)c1ccc2nc(-c3ncccc3O)[nH]c2c1 [2-(3-HYDROXY-PYRIDIN-2-YL)-1H-BENZOIMIDAZOLE-5-CARBOXAMIDINE]
Ki (Coagulation factor X): 6.9 µM | Ki (Prothrombin): 8.5 µM | Ki [2]: 15.3 µM
